Measured values published in paper PMC11480411, “Mucosal sugars delineate pyrazine vs pyrazinone autoinducer signaling in Klebsiella oxytoca” (Nature Communications, 2024).

Experiments:
Assay in all cases: PRESTO-Tango GPCR screen
Format in all cases: cell-based
Settings in all cases: 100 µM
GRPR = target: T1, GRPR (Homo sapiens, UniProt P30550)
T1 construct: purchased PRESTO-Tango GPCR kit (Roth lab / Addgene)
Summary of the method: (§1)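 Screening was done at 100 μM final ligand concentration, applied for 20 h to HTLA cells transiently expressing the individual GPCR-Tango construct. Readout: Bright-Glo luminescence, normalised as fold of PBS control.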

GPR101 = target: T2, GPR101 (Homo sapiens, UniProt Q96P66)
T2 construct: purchased PRESTO-Tango GPCR kit (Roth lab / Addgene)
Summary of the method: as §1

GPR133 = target: T3, GPR133 (Homo sapiens, UniProt Q6QNK2)
T3 construct: purchased PRESTO-Tango GPCR kit (Roth lab / Addgene)
Summary of the method: as §1

TSHR = target: T4, TSHR (Homo sapiens, UniProt P16473)
T4 construct: purchased PRESTO-Tango GPCR kit (Roth lab / Addgene)
Summary of the method: as §1

GIPR = target: T5, GIPR (Homo sapiens, UniProt P48546)
T5 construct: purchased PRESTO-Tango GPCR kit (Roth lab / Addgene)
Summary of the method: as §1

GPR132 = target: T6, GPR132 (Homo sapiens, UniProt Q9UNW8)
T6 construct: purchased PRESTO-Tango GPCR kit (Roth lab / Addgene)
Summary of the method: as §1

SSTR3 = target: T7, SSTR3 (Homo sapiens, UniProt P32745)
T7 construct: purchased PRESTO-Tango GPCR kit (Roth lab / Addgene)
Summary of the method: as §1

CCRL2 = target: T8, CCRL2 (Homo sapiens, UniProt O00421)
T8 construct: purchased PRESTO-Tango GPCR kit (Roth lab / Addgene)
Summary of the method: as §1

TBXA2R = target: T9, TBXA2R (Homo sapiens, UniProt P21731)
T9 construct: purchased PRESTO-Tango GPCR kit (Roth lab / Addgene)
Summary of the method: as §1

CXCR2 = target: T10, CXCR2 (Homo sapiens, UniProt P25025)
T10 construct: purchased PRESTO-Tango GPCR kit (Roth lab / Addgene)
Summary of the method: as §1

ADRA1B = target: T11, ADRA1B (Homo sapiens, UniProt P35368)
T11 construct: purchased PRESTO-Tango GPCR kit (Roth lab / Addgene)
Summary of the method: as §1

EDNRA = target: T12, EDNRA (Homo sapiens, UniProt P25101)
T12 construct: purchased PRESTO-Tango GPCR kit (Roth lab / Addgene)
Summary of the method: as §1

LPAR4 = target: T13, LPAR4 (Homo sapiens, UniProt Q99677)
T13 construct: purchased PRESTO-Tango GPCR kit (Roth lab / Addgene)
Summary of the method: as §1

GPR113 = target: T14, GPR113 (Homo sapiens, UniProt Q8IZF5)
T14 construct: purchased PRESTO-Tango GPCR kit (Roth lab / Addgene)
Summary of the method: as §1

GPR183 = target: T15, GPR183 (Homo sapiens, UniProt P32249)
T15 construct: purchased PRESTO-Tango GPCR kit (Roth lab / Addgene)
Summary of the method: as §1

MRGPRD = target: T16, MRGPRD (Homo sapiens, UniProt Q8TDS7)
T16 construct: purchased PRESTO-Tango GPCR kit (Roth lab / Addgene)
Summary of the method: as §1

GPR4 = target: T17, GPR4 (Homo sapiens, UniProt P46093)
T17 construct: purchased PRESTO-Tango GPCR kit (Roth lab / Addgene)
Summary of the method: as §1

TACR3 = target: T18, TACR3 (Homo sapiens, UniProt P29371)
T18 construct: purchased PRESTO-Tango GPCR kit (Roth lab / Addgene)
Summary of the method: as §1

CXCR4 = target: T19, CXCR4 (Homo sapiens, UniProt P61073)
T19 construct: purchased PRESTO-Tango GPCR kit (Roth lab / Addgene)
Summary of the method: as §1

AVPR1B = target: T20, AVPR1B (Homo sapiens, UniProt P47901)
T20 construct: purchased PRESTO-Tango GPCR kit (Roth lab / Addgene)
Summary of the method: as §1

GAL2 = target: T21, GAL2 (Homo sapiens, UniProt O43603)
T21 construct: purchased PRESTO-Tango GPCR kit (Roth lab / Addgene)
Summary of the method: as §1

APJ = target: T22, APJ (Homo sapiens, UniProt P35414)
T22 construct: purchased PRESTO-Tango GPCR kit (Roth lab / Addgene)
Summary of the method: as §1

GPR12 = target: T23, GPR12 (Homo sapiens, UniProt P47775)
T23 construct: purchased PRESTO-Tango GPCR kit (Roth lab / Addgene)
Summary of the method: as §1

GPR77 = target: T24, GPR77 (Homo sapiens, UniProt Q9P296)
T24 construct: purchased PRESTO-Tango GPCR kit (Roth lab / Addgene)
Summary of the method: as §1

FSHR = target: T25, FSHR (Homo sapiens, UniProt P23945)
T25 construct: purchased PRESTO-Tango GPCR kit (Roth lab / Addgene)
Summary of the method: as §1

CNR2 = target: T26, CNR2 (Homo sapiens, UniProt P34972)
T26 construct: purchased PRESTO-Tango GPCR kit (Roth lab / Addgene)
Summary of the method: as §1

CASR = target: T27, CASR (Homo sapiens, UniProt P41180)
T27 construct: purchased PRESTO-Tango GPCR kit (Roth lab / Addgene)
Summary of the method: as §1

NTSR1 = target: T28, NTSR1 (Homo sapiens, UniProt P30989)
T28 construct: purchased PRESTO-Tango GPCR kit (Roth lab / Addgene)
Summary of the method: as §1

GPR17 = target: T29, GPR17 (Homo sapiens, UniProt Q13304)
T29 construct: purchased PRESTO-Tango GPCR kit (Roth lab / Addgene)
Summary of the method: as §1

P2RY13 = target: T30, P2RY13 (Homo sapiens, UniProt Q9BPV8)
T30 construct: purchased PRESTO-Tango GPCR kit (Roth lab / Addgene)
Summary of the method: as §1

FFA2 = target: T31, FFA2 (Homo sapiens, UniProt O15552)
T31 construct: purchased PRESTO-Tango GPCR kit (Roth lab / Addgene)
Summary of the method: as §1

DRD4 = target: T32, DRD4 (Homo sapiens, UniProt P21917)
T32 construct: purchased PRESTO-Tango GPCR kit (Roth lab / Addgene)
Summary of the method: as §1

OPRD1 = target: T33, OPRD1 (Homo sapiens, UniProt P41143)
T33 construct: purchased PRESTO-Tango GPCR kit (Roth lab / Addgene)
Summary of the method: as §1

NMUR1 = target: T34, NMUR1 (Homo sapiens, UniProt Q9HB89)
T34 construct: purchased PRESTO-Tango GPCR kit (Roth lab / Addgene)
Summary of the method: as §1

GPR126 = target: T35, GPR126 (Homo sapiens, UniProt Q86SQ4)
T35 construct: purchased PRESTO-Tango GPCR kit (Roth lab / Addgene)
Summary of the method: as §1

RXFP3 = target: T36, RXFP3 (Homo sapiens, UniProt Q9NSD7)
T36 construct: purchased PRESTO-Tango GPCR kit (Roth lab / Addgene)
Summary of the method: as §1

T19 sequence (P61073 whole entry): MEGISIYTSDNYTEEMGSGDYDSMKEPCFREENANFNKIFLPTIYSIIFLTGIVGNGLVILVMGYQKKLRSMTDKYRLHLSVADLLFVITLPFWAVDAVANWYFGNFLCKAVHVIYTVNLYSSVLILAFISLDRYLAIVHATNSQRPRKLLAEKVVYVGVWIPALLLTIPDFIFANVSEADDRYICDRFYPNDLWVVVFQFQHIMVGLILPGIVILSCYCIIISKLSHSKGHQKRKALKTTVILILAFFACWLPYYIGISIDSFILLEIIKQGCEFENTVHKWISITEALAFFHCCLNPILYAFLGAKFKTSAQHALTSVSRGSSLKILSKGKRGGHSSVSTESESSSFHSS
T11 sequence (P35368 whole entry): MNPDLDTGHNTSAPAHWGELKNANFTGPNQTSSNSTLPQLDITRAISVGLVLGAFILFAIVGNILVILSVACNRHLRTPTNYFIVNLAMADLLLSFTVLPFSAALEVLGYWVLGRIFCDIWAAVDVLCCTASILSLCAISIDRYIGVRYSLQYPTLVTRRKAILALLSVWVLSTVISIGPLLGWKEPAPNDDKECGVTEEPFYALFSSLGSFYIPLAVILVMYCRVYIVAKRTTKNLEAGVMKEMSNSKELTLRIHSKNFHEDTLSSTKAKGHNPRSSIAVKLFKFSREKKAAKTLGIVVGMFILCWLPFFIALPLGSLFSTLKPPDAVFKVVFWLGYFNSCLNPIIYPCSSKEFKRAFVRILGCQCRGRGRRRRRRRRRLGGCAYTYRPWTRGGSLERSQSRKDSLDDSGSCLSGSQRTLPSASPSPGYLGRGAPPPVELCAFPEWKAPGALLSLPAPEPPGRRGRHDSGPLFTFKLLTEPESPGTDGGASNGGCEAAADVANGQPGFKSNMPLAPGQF
T33 sequence (P41143 whole entry): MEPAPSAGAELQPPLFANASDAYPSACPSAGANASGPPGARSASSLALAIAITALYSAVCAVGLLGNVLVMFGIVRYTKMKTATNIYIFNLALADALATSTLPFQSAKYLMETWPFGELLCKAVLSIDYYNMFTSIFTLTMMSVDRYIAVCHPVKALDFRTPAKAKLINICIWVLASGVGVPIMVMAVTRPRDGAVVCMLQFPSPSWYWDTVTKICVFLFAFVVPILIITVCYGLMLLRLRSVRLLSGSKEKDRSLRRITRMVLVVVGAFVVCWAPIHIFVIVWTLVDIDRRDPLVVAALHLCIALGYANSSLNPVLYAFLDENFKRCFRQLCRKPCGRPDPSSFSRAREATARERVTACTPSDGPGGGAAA
T27 sequence (P41180 20-1078): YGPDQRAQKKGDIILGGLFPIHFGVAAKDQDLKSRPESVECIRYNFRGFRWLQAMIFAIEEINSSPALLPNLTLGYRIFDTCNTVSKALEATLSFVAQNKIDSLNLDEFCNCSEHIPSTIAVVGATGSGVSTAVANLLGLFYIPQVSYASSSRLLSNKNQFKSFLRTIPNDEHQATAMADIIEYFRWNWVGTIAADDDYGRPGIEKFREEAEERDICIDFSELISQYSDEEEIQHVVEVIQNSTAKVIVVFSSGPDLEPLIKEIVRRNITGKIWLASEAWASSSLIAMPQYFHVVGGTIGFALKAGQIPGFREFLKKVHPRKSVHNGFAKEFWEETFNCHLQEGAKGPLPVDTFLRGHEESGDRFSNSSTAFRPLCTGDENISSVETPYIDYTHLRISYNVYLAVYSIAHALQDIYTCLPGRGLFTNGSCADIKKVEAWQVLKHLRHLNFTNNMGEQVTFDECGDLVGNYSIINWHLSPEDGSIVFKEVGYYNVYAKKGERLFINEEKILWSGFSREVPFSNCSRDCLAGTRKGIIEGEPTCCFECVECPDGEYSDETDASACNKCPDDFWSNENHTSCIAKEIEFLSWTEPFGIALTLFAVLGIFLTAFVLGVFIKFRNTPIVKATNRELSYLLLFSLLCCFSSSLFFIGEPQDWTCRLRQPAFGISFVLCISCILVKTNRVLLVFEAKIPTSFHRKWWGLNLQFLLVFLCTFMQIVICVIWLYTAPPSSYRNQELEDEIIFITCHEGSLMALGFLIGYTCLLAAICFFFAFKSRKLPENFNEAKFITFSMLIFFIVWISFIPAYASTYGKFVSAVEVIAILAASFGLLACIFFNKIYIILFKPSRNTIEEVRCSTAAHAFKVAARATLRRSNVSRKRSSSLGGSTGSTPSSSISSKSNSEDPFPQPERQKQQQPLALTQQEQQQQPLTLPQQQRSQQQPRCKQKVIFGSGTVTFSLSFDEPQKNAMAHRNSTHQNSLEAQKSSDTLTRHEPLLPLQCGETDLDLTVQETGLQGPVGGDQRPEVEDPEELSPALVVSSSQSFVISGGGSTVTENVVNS
T23 sequence (P47775 whole entry): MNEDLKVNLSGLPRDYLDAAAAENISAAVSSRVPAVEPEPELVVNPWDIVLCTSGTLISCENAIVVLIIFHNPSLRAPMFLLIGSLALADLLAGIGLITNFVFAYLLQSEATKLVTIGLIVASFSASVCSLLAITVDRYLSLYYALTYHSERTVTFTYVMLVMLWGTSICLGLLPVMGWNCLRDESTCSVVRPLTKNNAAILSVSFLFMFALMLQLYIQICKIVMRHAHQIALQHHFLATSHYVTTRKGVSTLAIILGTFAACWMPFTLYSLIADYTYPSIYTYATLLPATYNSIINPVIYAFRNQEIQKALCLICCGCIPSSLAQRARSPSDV
T20 sequence (P47901 whole entry): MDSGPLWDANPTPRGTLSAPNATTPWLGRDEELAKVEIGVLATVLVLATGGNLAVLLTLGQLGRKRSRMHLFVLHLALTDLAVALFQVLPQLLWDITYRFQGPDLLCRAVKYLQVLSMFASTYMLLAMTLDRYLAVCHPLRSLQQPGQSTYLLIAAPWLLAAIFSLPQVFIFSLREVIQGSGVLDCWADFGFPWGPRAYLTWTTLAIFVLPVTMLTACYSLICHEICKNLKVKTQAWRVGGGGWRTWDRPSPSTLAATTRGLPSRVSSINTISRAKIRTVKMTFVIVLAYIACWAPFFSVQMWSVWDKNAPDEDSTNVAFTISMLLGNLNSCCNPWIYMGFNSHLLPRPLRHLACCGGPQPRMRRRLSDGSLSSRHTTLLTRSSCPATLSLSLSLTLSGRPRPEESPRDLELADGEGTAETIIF
T6 sequence (Q9UNW8 whole entry): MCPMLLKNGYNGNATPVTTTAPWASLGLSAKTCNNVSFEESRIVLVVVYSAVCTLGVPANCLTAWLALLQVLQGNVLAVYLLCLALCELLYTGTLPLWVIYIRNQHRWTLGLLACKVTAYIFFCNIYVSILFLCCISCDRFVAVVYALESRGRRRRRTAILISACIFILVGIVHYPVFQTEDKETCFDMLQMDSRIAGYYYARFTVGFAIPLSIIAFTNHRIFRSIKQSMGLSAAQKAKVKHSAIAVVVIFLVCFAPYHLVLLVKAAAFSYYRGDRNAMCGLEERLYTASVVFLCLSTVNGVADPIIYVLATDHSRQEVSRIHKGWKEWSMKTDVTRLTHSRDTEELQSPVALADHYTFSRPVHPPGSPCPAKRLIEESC
T36 sequence (Q9NSD7 whole entry): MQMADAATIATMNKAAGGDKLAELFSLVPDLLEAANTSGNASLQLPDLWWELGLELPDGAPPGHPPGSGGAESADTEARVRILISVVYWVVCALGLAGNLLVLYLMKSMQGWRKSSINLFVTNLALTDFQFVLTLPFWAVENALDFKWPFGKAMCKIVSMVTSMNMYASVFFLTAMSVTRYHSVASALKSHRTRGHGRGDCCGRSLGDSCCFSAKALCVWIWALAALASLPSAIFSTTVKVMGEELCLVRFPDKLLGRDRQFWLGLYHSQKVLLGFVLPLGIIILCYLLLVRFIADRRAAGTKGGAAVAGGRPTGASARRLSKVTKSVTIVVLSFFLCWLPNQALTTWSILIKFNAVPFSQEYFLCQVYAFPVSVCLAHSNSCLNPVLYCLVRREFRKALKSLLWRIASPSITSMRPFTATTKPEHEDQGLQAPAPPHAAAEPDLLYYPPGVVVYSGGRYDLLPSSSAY
T3 sequence (Q6QNK2 26-874): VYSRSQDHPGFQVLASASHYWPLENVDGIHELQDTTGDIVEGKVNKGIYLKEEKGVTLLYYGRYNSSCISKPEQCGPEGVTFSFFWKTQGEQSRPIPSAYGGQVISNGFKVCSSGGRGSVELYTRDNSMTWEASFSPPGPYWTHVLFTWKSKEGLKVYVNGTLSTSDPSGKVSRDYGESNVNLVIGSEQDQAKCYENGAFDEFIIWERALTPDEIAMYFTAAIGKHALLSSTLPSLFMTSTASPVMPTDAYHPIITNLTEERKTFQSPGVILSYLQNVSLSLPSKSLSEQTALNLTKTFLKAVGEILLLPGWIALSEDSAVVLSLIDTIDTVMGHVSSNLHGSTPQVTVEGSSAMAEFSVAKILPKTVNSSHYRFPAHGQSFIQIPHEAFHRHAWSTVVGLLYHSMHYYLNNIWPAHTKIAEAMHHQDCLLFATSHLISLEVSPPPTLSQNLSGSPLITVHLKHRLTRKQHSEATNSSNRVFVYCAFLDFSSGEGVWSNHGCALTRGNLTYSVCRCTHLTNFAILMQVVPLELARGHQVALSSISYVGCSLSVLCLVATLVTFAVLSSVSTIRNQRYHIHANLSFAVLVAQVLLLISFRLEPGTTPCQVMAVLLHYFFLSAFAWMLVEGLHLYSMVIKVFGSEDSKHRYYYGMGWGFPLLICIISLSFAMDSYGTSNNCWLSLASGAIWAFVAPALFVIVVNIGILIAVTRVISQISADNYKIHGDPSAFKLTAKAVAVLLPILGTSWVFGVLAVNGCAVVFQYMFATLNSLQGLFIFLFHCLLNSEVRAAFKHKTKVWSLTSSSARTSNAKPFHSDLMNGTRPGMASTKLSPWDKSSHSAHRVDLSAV

SMILES	GPCR activation (heatmap value) (GRPR)	GPCR activation (heatmap value) (GPR101)	GPCR activation (heatmap value) (GPR133)	GPCR activation (heatmap value) (TSHR)	GPCR activation (heatmap value) (GIPR)	GPCR activation (heatmap value) (GPR132)	GPCR activation (heatmap value) (SSTR3)	GPCR activation (heatmap value) (CCRL2)	GPCR activation (heatmap value) (TBXA2R)	GPCR activation (heatmap value) (CXCR2)	GPCR activation (heatmap value) (ADRA1B)	GPCR activation (heatmap value) (EDNRA)	GPCR activation (heatmap value) (LPAR4)	GPCR activation (heatmap value) (GPR113)	GPCR activation (heatmap value) (GPR183)	GPCR activation (heatmap value) (MRGPRD)	GPCR activation (heatmap value) (GPR4)	GPCR activation (heatmap value) (TACR3)	GPCR activation (heatmap value) (CXCR4)	GPCR activation (heatmap value) (AVPR1B)	other results
CC(C)Cc1ncc(CCCCNC(=N)N)[nH]c1=O [3-Homo]	-0.6902	-0.2435	-0.3215	-0.3975	0.1024	0.4638	0.1422	0.009703	0.3386	0.01869	-0.4471	-0.554	-0.163	-0.1784	-0.6232	0.2698	0.3486	-0.1118	0.1574	-0.01402	GPCR activation (heatmap value) (GAL2): 0.5878; GPCR activation (heatmap value) (APJ): 0.4932; GPCR activation (heatmap value) (GPR12): 0.07278; GPCR activation (heatmap value) (GPR77): 0.08307; GPCR activation (heatmap value) (FSHR): -0.01288; GPCR activation (heatmap value) (CNR2): 0.8114; GPCR activation (heatmap value) (CASR): -0.5038; GPCR activation (heatmap value) (NTSR1): 0.1673; GPCR activation (heatmap value) (GPR17): 0.06719; GPCR activation (heatmap value) (P2RY13): 0.4611; GPCR activation (heatmap value) (FFA2): -0.3322; GPCR activation (heatmap value) (DRD4): -0.04181; GPCR activation (heatmap value) (OPRD1): -0.6579; GPCR activation (heatmap value) (NMUR1): 0.8213; GPCR activation (heatmap value) (GPR126): 0.0787; GPCR activation (heatmap value) (RXFP3): 0.07695
CC(C)Cc1ncc(CCCNC(=N)N)[nH]c1=O [compound 3]	0.1678	0.4147	-0.6324	0.2016	0.1911	0.3578	-0.3508	0.3717	0.04774	0.3766	0.1702	-0.2835	0.3739	-0.04557	-0.9955	-0.4298	0.5113	-0.7714	-0.06133	0.6298	GPCR activation (heatmap value) (GAL2): 0.1995; GPCR activation (heatmap value) (APJ): 0.6044; GPCR activation (heatmap value) (GPR12): 0.5588; GPCR activation (heatmap value) (GPR77): 0.5685; GPCR activation (heatmap value) (FSHR): 0.2361; GPCR activation (heatmap value) (CNR2): -0.04866; GPCR activation (heatmap value) (CASR): -0.8261; GPCR activation (heatmap value) (NTSR1): -0.1053; GPCR activation (heatmap value) (GPR17): 0.1737; GPCR activation (heatmap value) (P2RY13): -0.6143; GPCR activation (heatmap value) (FFA2): -0.009625; GPCR activation (heatmap value) (DRD4): 0.4609; GPCR activation (heatmap value) (OPRD1): 1.451; GPCR activation (heatmap value) (NMUR1): -0.191; GPCR activation (heatmap value) (GPR126): -0.3797; GPCR activation (heatmap value) (RXFP3): -0.5079
